Results reported in PMC5841354, “Gomesin peptides prevent proliferation and lead to the cell death of devil facial tumour disease cells” (Cell Death Discovery, 2018).
Where a SMILES comes first, the peptide text is derived from it. Bridges are numbered along the chain shown (N, C = ends). [ ]: non-standard residue; d: D form. pGlu = O=C1CC[C@@H](C(=O)O)N1

Experiments:
DFTD4 cells [1] = assay: Annexin V-FITC/PI apoptosis and necrosis; type: cell-based, Tasmanian devil (Sarcophilus harrisii); conditions: 50 µg/mL, 24 h
Protocol: Apoptosis in DFTD4 cells treated with AgGom or HiGom was measured using an Annexin V-FITC Apoptosis detection kit in combination with a Canto II high-throughput fluorescence-activated cell sorter (BD Biosciences, USA). Briefly, cells were seeded at a density of 100,000 cells/well in a round-bottom 96-well plate and treated with 50 µg/mL AgGom or HiGom for 24 h. The cells were collected mechanically, washed twice with PBS and once with wash buffer provided by the manufacturer. Cells were stained simultaneously with FITC-labelled annexin V and PI for 30 min in the dark and at room temperature before being analysed.

DFTD4 cells [2] = assay: Reactive oxygen species (Carboxy-H2DCFDA, flow cytometry); type: cell-based, Tasmanian devil (Sarcophilus harrisii); conditions: 50 μg/mL, 24 h, vs. untreated
Protocol: An Amplex Red Hydrogen Peroxidase assay kit (Invitrogen, Australia) was used to measure reactive oxygen species (ROS) generation in DFTD4 cells. A fluorescence probe that detects intracellular H2O2, Carboxy-H2DCFDA, was added 30 min prior to collecting cells to measure ROS production in DFTD4 cells that were previously treated with gomesin peptides at 50 µg/mL for 24 h. Fluorescent cells were washed twice with PBS prior to analysis on a FACSCalibur flow cytometer (BD Biosciences, USA) using excitation and emission wavelengths of 492 nm and 517 nm, respectively. Approximately 10,000 events were recorded per sample and the readout was analysed using FlowJo software v10.06 (FlowJo, USA).

FIBS cells = assay: MTT cell viability, non-transformed fibroblasts (FIBS); type: cell-based, Tasmanian devil (Sarcophilus harrisii); conditions: 48 h; for deleterious effects on FIBS viability: 50 µg/mL
Description: (§1) All DFTD (DFTD1, DFTD2, and DFTD4) and fibroblast (FIBS) cell lines were obtained from the Department of Primary Industries, Parks, Water, and Environment, State Government of Tasmania (DPIPWE) and were established as part of management plan and adhere to a standard operating practice. The DFTD1 cell line with catalogue number 3287 is derived from the tumour from a female devil (tag number: 06/2887) collected at St Marys, Eastern Tasmania in 2006. DFTD2 cell line with catalogue number 8961 was developed from a tumour from a male devil (tag number: 12/0625) collected at Kempton, Northern Tasmania in 2012. The DFTD4 cell line with catalogue number 4099 was developed from the tumour of a male devil (tag number: 07/0192) that was collected at Freycinet, east coast of Tasmania in 2007 and Fibroblasts cells (FIBS) with catalogue number 497 were obtained from a healthy devil male pup (tag number: 05/0962) held at Mount Pleasant, Southeastern of Tasmania in 2005.
(§2) Devil Facial Tumor cancer cell lines, and the control Tasmanian Devil fibroblast (FIBS) healthy cell line were maintained in a humidified incubator at 35 °C and 5% CO2. The DFTD cell lines were cultured in RPMI-1640 medium supplemented with 10% FCS, and 2 mM Glutamax. The FIBS was grown in GIBCO AmnioMAX-C100 Basal Medium liquid, containing AmnioMAX-C100 supplement. Penicillin/streptomycin (PS) (100 U/ml each) was added to both media. The cells were passaged at ~90% confluency. Functional studies were performed with passages up to 20. All cell lines were mycoplasma free.
(§3) Cell viability as an indicator of the number of viable and proliferative cells was measured by MTT according to the protocol of the manufacturer (Sigma-Aldrich, Australia). In brief, 8000 DFTD and 5000 FIBS cells/well were seeded in a 96-flat adherent microtiter well plate for 24 h to allow cell adhesion. Gomesin peptides and/or analogues were then added to the plates to measure MTT reduction. Plates were measured after 48 h at 540 nm absorbance in a microplate reader (BIOTEK PowerWave XS, USA). 0.1% SDS was used as a positive control (100% toxicity). A row of untreated cells was used to define 100% viability and blank wells containing only media were used to extract background. The concentration of gomesin peptides causing 50% inhibition (EC50) in DFTD and FIBS cells was determined using GraphPad Prism Software (Graphpad Inc, USA).

DFTD4 cells [3] = assay: MTT cell viability, DFTD4 cells; type: cell-based, Tasmanian devil (Sarcophilus harrisii); conditions: for cell viability / anti-proliferative activity in DFTD4 cells: 50 µg/mL
Description: as §1, §2, §3

DFTD4 cells [4] = assay: Mitochondrial membrane potential (Rhodamine 123); type: cell-based, Tasmanian devil (Sarcophilus harrisii); conditions: 50 µg/mL, 24 h, vs. vehicle
Protocol: We measured the mitochondrial membrane potential (MMP) using Rhodamine 123 (Rhod-123) (Sigma-Aldrich, Australia), a cationic dye that is localised in mitochondria. Loss-of-MMP results in loss-of-Rhod-123 fluorescence. Approximately 1 × 10^6 DFTD4 cells treated with AgGom or HiGom at 50 µg/mL for 24 h were collected and resuspended in 0.1 ml of culture medium, stained with 10 µg/mL Rhod-123 for 30 min, and then washed with PBS. The intracellular concentration of Rho123 was determined immediately after by flow cytometry (BD Biosciences, USA) using an excitation wavelength of 488 nm. The data were analysed using FlowJo v10.06 (FlowJo, USA).

DFTD4 cells [5] = assay: qRT-PCR of cell cycle check-point, pro-survival and apoptosis genes; type: cell-based, Tasmanian devil (Sarcophilus harrisii); conditions: 50 μg/mL, vs. vehicle
Protocol: Total RNA was extracted from both untreated (control) and gomesin-treated DFTD4 cells using an RNeasy kit (Qiagen, Australia) and 1 µg was reverse-transcribed into cDNA using SensiFast (Bioline, UK). Quantitative real time-PCR (qRT-PCR) to quantitate mRNA expression was performed on a LightCycler Instrument (Roche Molecular Biochemicals, Australia) with Tasmanian devil 18S used as the reference (housekeeper) gene. All primers are listed in Supplementary.

DFTD4 cells [6] = assay: Cell cycle analysis (PI, flow cytometry); type: cell-based, Tasmanian devil (Sarcophilus harrisii); conditions: 50 μg/mL, 24 h, mean ± SEM, three independent experiments
Protocol: DFTD4 cells were synchronised by removing serum from the medium for ~24 h. Cells were then transferred into medium containing serum and treated with AgGom or HiGom at 50 µg/mL for 24 h. Cells were detached mechanically, washed with PBS and fixed with 70% ethanol for ~1 h at 4 °C. Ethanol was removed by centrifugation (453 g for 5 min) and cells were washed with PBS. Cells were treated with 5 µL of 10 µg/mL ribonuclease A to remove RNA contamination and further incubated for 1 h at 37 °C to allow release of low-molecular weight DNA. Cell pellets were stained with 10 µL of propidium iodide (PI) (1 mg/ml) and analysed at a maximum emission of 605 nm using a LSR Fortessa 5 analyser (BD Biosciences, San Diego, CA, US). Approximately 10,000 events were recorded and data were analysed using FlowJo software v10.06 (FlowJo, US).

cultured DFTD cells = conditions: cited from earlier work
Description: In this pioneer study, we examined for the first time, in our knowledge, the therapeutic potential of spider-venom peptides against DFTD. Our study provides a molecular and mechanistic characterisation of the mode of action of gomesin peptides to prevent the proliferation of DFTD cells. This is especially relevant since the Tasmanian devil population has declined by at least 80%[1] and currently the therapeutic strategies to slow down the progression of DFTD in infective-devils have been ineffective. That was the case of vincristine, a chemotherapeutic agent used in human and veterinary medici ...

DFTD2 cells = assay: MTT cell viability, DFTD2 cells; type: cell-based, Tasmanian devil (Sarcophilus harrisii); conditions: Table 3, 48 h
Description: as §1, with “2005. […]” for “2005.”
(§4) Cell viability as an indicator of the number of viable and proliferative cells was measured by MTT according to the protocol of the manufacturer (Sigma-Aldrich, Australia). […] Plates were measured after 48 h at 540 nm absorbance in a microplate reader (BIOTEK PowerWave XS, USA). […]

DFTD1 cells = assay: MTT cell viability, DFTD1 cells; type: cell-based, Tasmanian devil (Sarcophilus harrisii); conditions: Table 3, 48 h
Description: as §1, with “2005. […]” for “2005.”
as §4

CC(C)C[C@@H]1NC(=O)[C@H](CCCNC(=N)N)NC(=O)[C@H](CCCNC(=N)N)NC(=O)[C@@H](NC(=O)[C@@H]2CCC(=O)N2)CSSC[C@@H](C(=O)N[C@@H](CCCNC(=N)N)C(=O)NCC(=O)N[C@@H](CCCNC(=N)N)C(N)=O)NC(=O)[C@H](Cc2ccc(O)cc2)NC(=O)[C@H]([C@@H](C)O)NC(=O)[C@H](C(C)C)NC(=O)[C@@H]2CSSC[C@H](NC1=O)C(=O)N[C@@H](Cc1ccc(O)cc1)C(=O)N[C@@H](CCCNC(=N)N)C(=O)N[C@@H](CC(N)=O)C(=O)N[C@@H](CCCNC(=N)N)C(=O)N2 [HiGom] ([pGlu]CRRLCYRNRCVTYCRGR-NH2; disulfide 2-15, 6-11)
early or late apoptotic cell ratio (DFTD4 cells [1]): not altered
necrosis of DFTD cells compared to untreated cells (DFTD4 cells [1]): significantly increased necrosis
ROS (DFTD4 cells [2]): significant increase in ROS
deleterious effects on FIBS viability (FIBS cells): not statistically significant
effects on FIBS viability (FIBS cells; 0.5 to 25 µg/mL): negligible effects
cell viability / anti-proliferative activity in DFTD4 cells (DFTD4 cells [3]; 48 h): dramatically reduced the cell viability
anti-proliferative / cytotoxic activity compared with AgGom (DFTD4 cells [3]; DFTD cell lines (DFTD1, DFTD2, DFTD4), 48 h): more cytotoxic than AgGom
MMP (DFTD4 cells [4]): significant decrease in MMP
expression of BCL2 (DFTD4 cells [5]): enhanced
expression of p53 (DFTD4 cells [5]): enhanced
p27 expression (DFTD4 cells [5]): elevated
G0/G1 (DFTD4 cells [6]): 47.2 ± 0.66
G2/M (DFTD4 cells [6]): 13.3 ± 0.7
S-phase (DFTD4 cells [6]): 13.7 ± 1.9

CC(C)Cn1cnc2c(N)nc3ccccc3c21 [imiquimod]
apoptotic activity against cultured DFTD cells (cultured DFTD cells): displayed apoptotic activity

ZCRRLCYKQRCVTYCRGR-NH2 (bicyclic or more) [AgGom, 18-residue spider peptide gomesin first isolated from hemocytes of Acanthoscurria gomesiana]
early or late apoptotic cell ratio (DFTD4 cells [1]): not altered
necrosis of DFTD cells compared to untreated cells (DFTD4 cells [1]): significantly increased necrosis
ROS (DFTD4 cells [2]): significant increase in ROS
deleterious effects on FIBS viability (FIBS cells): not statistically significant
cell viability / anti-proliferative activity in DFTD4 cells (DFTD4 cells [3]; 48 h): dramatically reduced the cell viability
EC50 (DFTD4 cells [3]; DFTD4 cells, 48 h exposure, three independent experiments in triplicate): 25.25 µg/mL
MMP (DFTD4 cells [4]): significant decrease in MMP
EC50 (µg/mL) DFTD2 (DFTD2 cells): 12.29 µg/mL
EC50 (µg/mL) DFTD1 (DFTD1 cells): 20.4 µg/mL
expression of BCL2 (DFTD4 cells [5]): enhanced
expression of p21 (DFTD4 cells [5]): induction
expression of p53 (DFTD4 cells [5]): enhanced
expression of pro-survival gene MCL1 (DFTD4 cells [5]): induction
p27 expression (DFTD4 cells [5]): statistically significant increase
G0/G1 (DFTD4 cells [6]): 39.9 ± 1.32
G2/M (DFTD4 cells [6]): 14.3 ± 0.9
S-phase (DFTD4 cells [6]): 11.47 ± 1.35
